Source: ChEMBL document CHEMBL1201862, “PubChem BioAssay data set” (2004)
Active and inactive are the calls of the source. Cut-off read from the data, not from the text of the source: actives have a measured IC50 and inactives only a lower limit.

Molecular target: Envelope glycoprotein gp160 (Human immunodeficiency virus 1, UniProt Q6QLK5)
Experiment: cell-free HIV fusion peptide-binding blockers – biochemical, uHTS, fluorescence dequenching, […] (AID 1986)

Chain of Envelope glycoprotein gp160 (Q6QLK5 whole entry, the tested form may be a part): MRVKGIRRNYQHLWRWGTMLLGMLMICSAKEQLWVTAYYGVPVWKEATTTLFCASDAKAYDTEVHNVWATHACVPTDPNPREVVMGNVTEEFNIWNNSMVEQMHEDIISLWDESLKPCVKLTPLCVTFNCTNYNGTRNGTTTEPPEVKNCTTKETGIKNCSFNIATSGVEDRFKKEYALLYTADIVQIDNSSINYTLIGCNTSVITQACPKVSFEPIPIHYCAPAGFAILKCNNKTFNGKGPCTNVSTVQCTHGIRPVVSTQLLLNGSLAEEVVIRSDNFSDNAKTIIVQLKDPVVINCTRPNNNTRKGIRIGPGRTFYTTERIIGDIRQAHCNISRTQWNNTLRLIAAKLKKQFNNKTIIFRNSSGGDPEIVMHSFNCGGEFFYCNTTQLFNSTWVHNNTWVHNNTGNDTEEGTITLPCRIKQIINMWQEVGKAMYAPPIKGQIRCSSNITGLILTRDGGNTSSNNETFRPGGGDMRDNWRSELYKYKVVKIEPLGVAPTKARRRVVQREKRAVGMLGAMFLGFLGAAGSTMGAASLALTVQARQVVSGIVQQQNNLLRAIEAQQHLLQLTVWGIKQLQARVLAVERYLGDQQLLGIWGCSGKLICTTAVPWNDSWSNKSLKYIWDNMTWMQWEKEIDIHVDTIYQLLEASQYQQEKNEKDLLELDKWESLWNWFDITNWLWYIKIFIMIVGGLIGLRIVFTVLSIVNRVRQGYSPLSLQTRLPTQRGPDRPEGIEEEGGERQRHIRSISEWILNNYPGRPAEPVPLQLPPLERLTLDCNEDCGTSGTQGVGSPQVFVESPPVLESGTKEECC

Row | Structure (SMILES) | IC50
1 | CCCCCOc1ccc(C2C(C(=O)c3ccc(C)o3)=C(O)C(=O)N2c2cc(C)on2)cc1 (configuration not stated) | 22.8 µM (active)
2 | Cc1ccc(S(=O)(=O)Oc2ccc(/C=C3\C(=N)N4N=C(S(C)(=O)=O)SC4=NC3=O)cc2)cc1 | 16.2 µM (active)
